Experiments:
Assay type in all cases: cell-based
INS-1 cells [1] = assay: Intracellular ATP amount by luciferase/luciferin assay in INS-1 cells; conditions: 10 μM, 2 hours, luciferase
Method: (§1) If mitochondrial function is impaired, it may cause diabetes mellitus by interfering with insulin signaling. Accordingly, in order to confirm the effect of gypenoside 75 on the activation of the mitochondrial function, after gypenoside 75 was treated, an increased amount of ATP and mitochondrial membrane potentials were measured. Specifically, in order to confirm the effect of gypenoside 75 on the activation of the mitochondrial function, INS-1 cells, which are insulin-secreting cells, were cultured in a cell incubator (37° C., 5% CO2, RPMI culture medium, 10% FBS). The cells were treated with 10 μM of gypenoside 75 for 2 hours, and the amount of ATP and mitochondrial membrane potentials inside the cells were then measured. To measure the amount of intracellular ATP, the INS-1 cells treated with gypenoside 75 were lysed through freezing-thawing and ultrasonication methods. The cell lysates were mixed with luciferase and luciferin to induce fluorescence. As the activation of the luciferase and fluorescence induced thereby depend on the amount of ATP, the degree of fluorescence was measured with a fluorometer to determine the amount of ATP. To measure the mitochondrial membrane potential, the INS-1 cells treated with gypenoside 75 were then stained with TMRM, and the degree of the staining of each cell was measured using a FACS instrument. As the mitochondrial membrane potential increases, the degree of staining by TMRM increases.

INS-1 cells [2] = assay: Insulin secretion of INS-1 cells measured by ELISA; conditions: 10 μM, 2 hours
Method: In order to confirm the effect of gypenoside 75 on an increase in insulin secretion, the amount of insulin secreted after treatment with gypenoside 75 was measured. Specifically, in order to confirm the effect of gypenoside 75 on an increase in insulin secretion, INS-1 cells, which are insulin-secreting cells, were cultured in a cell incubator (37° C., 5% CO2, RPMI culture medium, 10% FBS). The cells were treated with each of 10 μM of gypenoside 75, ginsenoside F1, ginsenoside Rg3, ginsenoside Rb2, and ginsenoside Rb3 for 2 hours, and the amounts of insulin secreted after the treatments were then measured via the ELISA method.

INS-1 cells [3] = assay: Mitochondrial membrane potential by TMRM staining and FACS in INS-1 cells; conditions: 10 μM, 2 hours, TMRM staining, FACS
Method: as §1

| Structure (SMILES) | increase of the amount of intracellular ATP compared to control group (DMSO) (INS-1 cells [1]) | increase of the amount of insulin secreted compared to control group (DMSO) (INS-1 cells [2]) | increase of mitochondrial membrane potential compared to control group (DMSO) (INS-1 cells [3]) |
| --- | --- | --- | --- |
| CC(C)=CCC[C@](C)(O[C@@H]1O[C@H](CO)[C@@H](O)[C@H](O)[C@H]1O)[C@H]1CC[C@]2(C)[C@@H]1[C@H](O)C[C@@H]1[C@@]3(C)CC[C@H](O)C(C)(C)[C@@H]3[C@@H](O)C[C@]12C [ginsenoside F1] | about 40% | 50% | about 20% |
| CC(C)=CCC[C@](C)(O[C@@H]1O[C@H](CO[C@@H]2OC[C@H](O)[C@H](O)[C@H]2O)[C@@H](O)[C@H](O)[C@H]1O)[C@H]1CC[C@]2(C)[C@@H]1[C@H](O)C[C@@H]1[C@@]3(C)CC[C@H](O[C@@H]4O[C@H](CO)[C@@H](O)[C@H](O)[C@H]4O[C@@H]4O[C@H](CO)[C@@H](O)[C@H](O)[C@H]4O)C(C)(C)[C@@H]3CC[C@]12C [ginsenoside Rb2] | about 40% | 50% | about 20% |
| CC(C)=CCC[C@](C)(O[C@@H]1O[C@H](CO[C@@H]2OC[C@@H](O)[C@H](O)[C@H]2O)[C@@H](O)[C@H](O)[C@H]1O)[C@H]1CC[C@]2(C)[C@@H]1[C@H](O)C[C@@H]1[C@@]3(C)CC[C@H](O[C@@H]4O[C@H](CO)[C@@H](O)[C@H](O)[C@H]4O[C@@H]4O[C@H](CO)[C@@H](O)[C@H](O)[C@H]4O)C(C)(C)[C@@H]3CC[C@]12C [ginsenoside Rb3] | about 40% | 50% | about 20% |
| CC(C)=CCC[C@](C)(O)[C@H]1CC[C@]2(C)[C@@H]1[C@H](O)C[C@@H]1[C@@]3(C)CC[C@H](O[C@@H]4O[C@H](CO)[C@@H](O)[C@H](O)[C@H]4O[C@@H]4O[C@H](CO)[C@@H](O)[C@H](O)[C@H]4O)C(C)(C)[C@@H]3CC[C@]12C [ginsenoside Rg3] | about 40% | 50% | about 20% |
| CC(C)=CCC[C@](C)(O[C@@H]1O[C@H](CO[C@@H]2O[C@H](CO)[C@@H](O)[C@H](O)[C@H]2O)[C@@H](O)[C@H](O)[C@H]1O)[C@H]1CC[C@]2(C)[C@@H]1[C@H](O)C[C@@H]1[C@@]3(C)CC[C@H](O)C(C)(C)[C@@H]3CC[C@]12C [gypenoside 75] | 50% | about 110% | about 40% |
